This data set relates to rodent carcinogenicity bioassays, tumor incidence. As to the kind of experiment: CCRIS carcinogenicity studies. In short, it runs like this:
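NCI-built, expert-reviewed records of carcinogenicity and related test outcomes (mutagenicity, tumor promotion/inhibition) compiled from published and report sources, historical span 1985-2011, not updated.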

SMILES strings stand for the structures. The source made the active and inactive calls. No rule for the calls is given here.

For `CC1CC(=O)O1` (stereo not drawn), the carcinogen call is, setting by setting: (Species: MOUSE, Route: DERMAL, Tumor Site: Type of Lesion: INTEGUMENTARY SYSTEM (SKIN)) “active; positive”; (Species: MOUSE, Route: SUBCUTANEOUS, Tumor Site: Type of Lesion: INJECTION SITE) “active; positive”; (Species: RAT, Route: GAVAGE, Tumor Site: Type of Lesion: FORESTOMACH) “active; positive”; (Species: RAT, Route: SUBCUTANEOUS, Tumor Site: Type of Lesion: INJECTION SITE) “active; positive”.

On to `O=C1CCCO1`, for which the carcinogen call (Species: MOUSE, Strain/Sex: B6C3F1/FEMALE, Route: GAVAGE, Dose: 0, 262, 525 MG/KG IN CORN OIL 5 D/WK FOR 103 WK (STUDY DURATION: 2 YR), Dose: 0, 262, 525 MG/KG IN CORN OIL 5 D/WK FOR 103 WK (STUDY DURATION: 2 YR)) is “inactive; negative”; the carcinogen call (Species: MOUSE, Strain/Sex: B6C3F1/FEMALE, Route: GAVAGE, Dose: 0, 262, 525 MG/KG IN CORN OIL 5 D/WK FOR 103 WK (STUDY DURATION: 105 WK), Dose: 0, 262, 525 MG/KG IN CORN OIL 5 D/WK FOR 103 WK (STUDY DURATION: 105 WK), Tumor Site: Type of Lesion: ADRENAL MEDULLA: BENIGN OR MALIGNANT PHEOCHROMOCYTOMA) is recorded as “equivocal”; the carcinogen call (Species: RAT, Strain/Sex: F344/FEMALE, Route: GAVAGE, Dose: 0, 225, 450 MG/KG IN CORN OIL 5 D/WK FOR 103 WK (STUDY DURATION: 2 YR), Dose: 0, 225, 450 MG/KG IN CORN OIL 5 D/WK FOR 103 WK (STUDY DURATION: 2 YR)) was “inactive; negative”; the carcinogen call (Species: RAT, Strain/Sex: F344/MALE, Route: GAVAGE, Dose: 0, 112, 225 MG/KG IN CORN OIL 5 D/WK FOR 103 WK (STUDY DURATION: 2 YR), Dose: 0, 112, 225 MG/KG IN CORN OIL 5 D/WK FOR 103 WK (STUDY DURATION: 2 YR)) is “inactive; negative”.

These data come from PubChem BioAssay AID1259411 (Chemical Carcinogenesis Research Information System (CCRIS), 2018).
